The record followed here is paper PMC3751846, “BET Inhibition Silences Expression of MYCN and BCL2 and Induces Cytotoxicity in Neuroblastoma Tumor Models” (PLoS ONE, 2013).

Where two headings read alike, the source gives them in different places.

Common to all, as to assay: cells
The test system of assay [1] is CHP-212. Set-up: species or system neuroblastoma cell lines; 6 day growth-death assay, CellTiter-Fluor read-out, mid-point of growth window (DMSO to T0). The following applies: Homo sapiens, CHP-212, 144 h; CellTiter-Fluor, 6 days; read-out: gIC50 CellTiter-Fluor. On the procedure:
(§1) Cell line growth-death assays were performed as described, with a few modifications. Briefly, cells were seeded into 384-well or 96-well plates at a density optimized for 6 days of growth. The following day, T0 measurements were taken using CellTiter-Glo (CTG; Promega, Madison, WI), CellTiter-Fluor (Promega), or CyQuant Direct (Life Technologies), following the manufacturer’s instructions. Plates were read on an Envision (PerkinElmer, Waltham, MA), Safire 2 (Tecan, Durham, NC), or SpectraMax Gemini EM (Molecular Devices, Sunnyvale, CA) plate reader. […] Cells were incubated for 6 days and developed as described above. Results were plotted as a percentage of the T0 value, normalized to 100%, versus concentration of compound. A 4-parameter equation was used to generate concentration response curves. Growth IC50 (gIC50) values were calculated at the mid-point of the growth window (between DMSO and T0 values). Ymin-T0 values were calculated by subtracting the T0 value (100%) from the Ymin value on the curve, and are a measure of net population cell growth or death.

Assay [2] has as its system LA1-5s. Set-up: species or system neuroblastoma cell lines; 6 day growth-death assay, CellTiter-Fluor read-out, mid-point of growth window (DMSO to T0). As to conditions: Neuroblastoma cell, 144 h; CellTiter-Fluor, 6 days; read-out: gIC50 CellTiter-Fluor. On the procedure:
as §1

The test system of assay [3] is SK-N-AS. Set-up: species or system neuroblastoma cell lines; 6 day growth-death assay, CellTiter-Fluor read-out, mid-point of growth window (DMSO to T0). As to conditions: Homo sapiens, SK-N-AS, 144 h; CellTiter-Fluor, 6 days; read-out: gIC50 CellTiter-Fluor. The protocol: as §1
In assay [4] the test system is SK-N-BE(2). The arrangement: species or system neuroblastoma cell lines; 6 day growth-death assay, CellTiter-Fluor read-out, mid-point of growth window (DMSO to T0). The following applies: Homo sapiens, SKNBE2, 144 h; CellTiter-Fluor, 6 days; read-out: gIC50 CellTiter-Fluor. On the procedure: as §1
Assay [5] relates to CHP-212. Set-up: species or system neuroblastoma cell lines; 6 day growth-death assay, CyQuant Direct read-out, mid-point of growth window (DMSO to T0). The following applies: Homo sapiens, CHP-212, 144 h; CyQuant, 6 days; read-out: gIC50 CyQuant. On the procedure: as §1
Assay [6] has as its system LA1-5s. Set-up: species or system neuroblastoma cell lines; 6 day growth-death assay, CyQuant Direct read-out, mid-point of growth window (DMSO to T0). The following applies: Neuroblastoma cell, 144 h; CyQuant, 6 days; read-out: gIC50 CyQuant. The protocol: as §1
For assay [7], the system named is SK-N-AS. Set-up: species or system neuroblastoma cell lines; 6 day growth-death assay, CyQuant Direct read-out, mid-point of growth window (DMSO to T0). The following applies: Homo sapiens, SK-N-AS, 144 h; CyQuant, 6 days; read-out: gIC50 CyQuant. On the procedure:
as §1

Assay [8] deals with SK-N-BE(2). Set-up: species or system neuroblastoma cell lines; 6 day growth-death assay, CyQuant Direct read-out, mid-point of growth window (DMSO to T0). The following applies: Homo sapiens, SKNBE2, 144 h; CyQuant, 6 days; read-out: gIC50 CyQuant. The protocol:
as §1

For `CC(=O)N1c2ccc(-c3ccc(C(=O)O)cc3)cc2[C@H](Nc2ccc(Cl)cc2)C[C@@H]1C` [I-BET726], the GI50 is 30 nM in assay [1]; 25 nM in assay [2]; 130 nM in assay [3]; 20 nM in assay [4]; 10 nM in assay [5]; 10 nM in assay [6]. For the same molecule, the GI50 worked out at 135 nM in assay [7] and 80 nM in assay [8].
